In ChEMBL document CHEMBL6177968, “Development of sulfamoylbenzamide-based capsid assembly modulators for hepatitis B virus capsid assembly” (Eur J Med Chem, 2025):
Activity calls are given as the source filed them. The calls are words filed in the database; no cut-off is given here.

Tests used:
[1] = Cytotoxicity in mouse NIH3T3 cells; format: toxicity, cell-based
[2] = AUClast in male mouse at 5 mg/kg, po; format: ADME, organism-based; conditions: in vivo
Cytochrome P450 3A4 = Cytochrome P450 3A4 (Homo sapiens, UniProt P08684); assay: Inhibition of CYP3A4 in human liver microsome; format: ADME, microsomes
Chain of Cytochrome P450 3A4 (P08684 whole entry): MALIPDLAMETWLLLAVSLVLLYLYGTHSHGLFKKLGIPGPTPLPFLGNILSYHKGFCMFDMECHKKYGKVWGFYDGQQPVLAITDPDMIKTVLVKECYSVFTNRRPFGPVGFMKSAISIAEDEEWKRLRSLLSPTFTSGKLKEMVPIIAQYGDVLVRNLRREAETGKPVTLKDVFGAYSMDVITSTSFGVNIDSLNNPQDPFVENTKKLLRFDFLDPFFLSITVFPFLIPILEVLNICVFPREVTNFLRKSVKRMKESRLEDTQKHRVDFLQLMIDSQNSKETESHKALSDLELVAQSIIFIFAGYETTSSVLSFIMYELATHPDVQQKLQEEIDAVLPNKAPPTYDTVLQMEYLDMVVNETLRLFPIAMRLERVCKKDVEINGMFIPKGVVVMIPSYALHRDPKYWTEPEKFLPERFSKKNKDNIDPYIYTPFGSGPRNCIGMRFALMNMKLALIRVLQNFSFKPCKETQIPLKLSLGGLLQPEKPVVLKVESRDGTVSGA

[3] = biological target: Core antigen (Hepatitis B virus) (UniProt Q03732); assay: Binding affinity to HBV core protein dimers extracted from Escherichia coli assessed as retention volume at peak of capsid assembly by size exclusion chromatography (reference value: 8.63 mL)
Chain of Core antigen (Hepatitis B virus) (Q03732 as listed by the source): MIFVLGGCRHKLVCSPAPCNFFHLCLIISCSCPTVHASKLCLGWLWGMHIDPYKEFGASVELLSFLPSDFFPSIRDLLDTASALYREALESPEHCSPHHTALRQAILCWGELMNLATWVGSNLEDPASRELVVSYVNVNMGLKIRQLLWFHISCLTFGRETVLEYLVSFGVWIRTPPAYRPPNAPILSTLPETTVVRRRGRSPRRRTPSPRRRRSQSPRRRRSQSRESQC

[4] = Stability in human plasma assessed as compound remaining incubated for 4 hrs; format: ADME, cell-free; conditions: read-out: Stability
[5] = biological target: Core antigen (Hepatitis B virus) (UniProt Q03732); assay: Binding affinity to HBV core protein dimers extracted from Escherichia coli assessed as clump formation of assembled capsids by negative staining electron microscopic analysis
[6] = Half life in male mouse at 5 mg/kg, iv; format: ADME, organism-based; conditions: in vivo
[7] = Selectivity index, ratio of CC50 for cytotoxicity in human HepG2-hNTCP cells assessed as reduction in cell viability to EC50 for antiviral activity against HBV in human HepG2-hNTCP cells assessed as reduction in viral replication; format: toxicity, cell-based; conditions: read-out: Ratio CC50/EC50
[8] = Metabolic stability in rat liver microsomes assessed as compound remaining measured after 30 mins; format: ADME, Microsome; conditions: read-out: Stability
Hepatitis B virus [9] = assay: Antiviral activity against HBV infected in human HepG2 cells expressing NTCP assessed as ratio of capsid associated HBV DNA level at 1 uM incubated for 6 days by Western blot analysis (reference value: 100 %); format: functional; conditions: time 6 day
[10] = Stability in mouse plasma assessed as compound remaining incubated for 4 hrs; format: ADME, cell-free; conditions: read-out: Stability
[11] = Cytotoxicity in human HepG2-hNTCP cells assessed as reduction in cell viability; format: toxicity, cell-based
[12] = Plasma protein binding in mouse; format: ADME, cell-free; conditions: read-out: PPB (converted)
Hepatitis B virus [13] = assay: Antiviral activity against HBV infected in human HepG2 cells expressing NTCP assessed as capsid associated HBV DNA level at 1 uM incubated for 6 days by Western blot analysis (reference value: 100 %); format: functional; conditions: time 6 day
[14] = Oral bioavailability in male mouse at 20 mg/kg; format: ADME, organism-based; conditions: in vivo
[15] = Cytotoxicity in HFL1 cells; format: toxicity, cell-based; conditions: human
[16] = AUClast in male mouse at 5 mg/kg, iv; format: ADME, organism-based; conditions: in vivo
Hepatitis B virus [17] = assay: Antiviral activity against HBV infected in human HepG2 cells expressing NTCP assessed as decrease in intracellular HBc level at 1 uM incubated for 6 days by indirect immunofluorescence staining based analysis; format: functional, organism-based; conditions: time 6.0 day
[18] = AUC (0 to infinity) in male mouse at 20 mg/kg, iv; format: ADME, organism-based; conditions: in vivo
[19] = biological target: Voltage-gated inwardly rectifying potassium channel KCNH2 (Homo sapiens, UniProt Q12809); assay: Inhibition of human ERG; format: toxicity
Chain of Voltage-gated inwardly rectifying potassium channel KCNH2 (Q12809 whole entry): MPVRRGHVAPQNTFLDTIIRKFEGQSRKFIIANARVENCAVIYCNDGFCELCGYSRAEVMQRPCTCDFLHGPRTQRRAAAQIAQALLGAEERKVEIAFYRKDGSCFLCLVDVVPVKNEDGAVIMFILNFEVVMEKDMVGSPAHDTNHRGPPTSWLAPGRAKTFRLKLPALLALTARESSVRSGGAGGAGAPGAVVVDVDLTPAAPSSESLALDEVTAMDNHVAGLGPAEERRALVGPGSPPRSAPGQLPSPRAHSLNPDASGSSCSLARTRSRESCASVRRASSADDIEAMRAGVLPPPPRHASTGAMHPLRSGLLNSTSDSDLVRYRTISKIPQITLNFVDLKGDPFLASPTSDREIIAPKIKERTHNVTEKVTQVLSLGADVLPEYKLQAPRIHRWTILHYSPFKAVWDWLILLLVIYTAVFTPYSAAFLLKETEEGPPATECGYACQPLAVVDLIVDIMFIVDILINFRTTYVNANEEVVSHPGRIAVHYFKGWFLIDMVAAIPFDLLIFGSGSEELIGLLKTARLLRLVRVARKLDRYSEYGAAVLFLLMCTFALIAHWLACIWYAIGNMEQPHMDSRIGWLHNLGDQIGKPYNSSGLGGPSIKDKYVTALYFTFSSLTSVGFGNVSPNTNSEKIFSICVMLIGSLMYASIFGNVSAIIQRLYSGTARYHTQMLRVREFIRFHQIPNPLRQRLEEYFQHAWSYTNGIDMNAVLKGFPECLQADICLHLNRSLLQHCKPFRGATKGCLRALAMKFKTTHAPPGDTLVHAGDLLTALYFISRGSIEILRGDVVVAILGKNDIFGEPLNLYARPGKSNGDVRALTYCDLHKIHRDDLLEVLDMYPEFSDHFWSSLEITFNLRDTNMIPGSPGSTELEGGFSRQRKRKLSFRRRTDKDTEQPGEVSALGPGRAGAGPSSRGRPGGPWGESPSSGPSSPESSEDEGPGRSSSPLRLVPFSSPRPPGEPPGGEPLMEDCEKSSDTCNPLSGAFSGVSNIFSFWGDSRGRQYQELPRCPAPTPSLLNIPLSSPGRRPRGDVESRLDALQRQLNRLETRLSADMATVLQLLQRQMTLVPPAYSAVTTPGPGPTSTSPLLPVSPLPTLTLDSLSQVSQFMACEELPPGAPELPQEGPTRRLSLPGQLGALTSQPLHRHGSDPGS

[20] = Metabolic stability in human liver microsomes assessed as compound remaining measured after 30 mins; format: ADME, Microsome; conditions: read-out: Stability
Hepatitis B virus [21] = assay: Antiviral activity against HBV infected in human HepG2 cells expressing NTCP assessed as fold increase in intracellular capsid level at 1 uM incubated for 6 days by Western blot analysis relative to control; format: functional; conditions: time 6 day
[22] = Selectivity index, ratio of CC50 for cytotoxicity in human HepaRG cells assessed as reduction in cell viability to EC50 for antiviral activity against HBV in human HepaRG cells assessed as reduction in viral replication; format: toxicity, cell-based; conditions: read-out: Ratio CC50/EC50
[23] = Tmax in male mouse at 5 mg/kg, po; format: ADME, organism-based; conditions: in vivo
[24] = Cytotoxicity in human HepaRG cells assessed as reduction in cell viability; format: toxicity, cell-based
[25] = Oral bioavailability in male mouse at 5 mg/kg; format: ADME, organism-based; conditions: in vivo
[26] = Cytotoxicity in human HepG2.2.15 cells assessed as reduction in cell viability; format: toxicity, cell-based, HepG2 2.2.15
Hepatitis B virus [27] = assay: Antiviral activity against HBV infected in human HepG2 cells expressing NTCP assessed as viral DNA replication at 1 uM incubated for 6 days by Southern blot analysis (reference value: 100 %); format: functional; conditions: time 6 day
Hepatitis B virus [28] = assay: Antiviral activity against HBV in human HepG2.2.15 cells assessed as reduction in viral replication incubated for 5 days by real-time PCR analysis; format: functional, organism-based; conditions: HepG2.2.15, 120 h
[29] = Half life in male mouse at 5 mg/kg, po; format: ADME, organism-based; conditions: in vivo
[30] = Metabolic stability in mouse liver microsomes assessed as compound remaining measured after 30 mins; format: ADME, Microsome; conditions: read-out: Stability
[31] = AUC (0 to infinity) in male mouse at 20 mg/kg, po; format: ADME, organism-based; conditions: in vivo
[32] = Selectivity index, ratio of CC50 for cytotoxicity in human HepG2.2.15 cells assessed as reduction in cell viability to EC50 for antiviral activity against HBV in human HepG2.2.15 cells assessed as reduction in viral replication; format: toxicity, cell-based; conditions: read-out: Ratio CC50/EC50
[33] = Half life in male mouse at 20 mg/kg, po; format: ADME, organism-based; conditions: in vivo
Hepatitis B virus [34] = assay: Antiviral activity against HBV infected in human HepG2 cells expressing NTCP assessed as intracellular HBc level at 1 uM incubated for 6 days by Western blot analysis (reference value: 100 %); format: functional; conditions: time 6 day
[35] = AUC (0 to infinity) in male mouse at 5 mg/kg, po; format: ADME, organism-based; conditions: in vivo
Hepatitis B virus [36] = assay: Antiviral activity against HBV infected in human HepG2 cells expressing NTCP assessed as fold reduction in capsid associated viral DNA level at 1 uM incubated for 6 days by Southern blot analysis relative to control; format: functional; conditions: time 6 day
[37] = AUClast in male mouse at 20 mg/kg, iv; format: ADME, organism-based; conditions: in vivo
HepG2 [38] = assay: Effect on viral rcDNA level in human HepG2 cells expressing NTCP infected with HBV at 1 uM incubated for 6 days by Southern blot analysis; format: functional, cell-based; conditions: time 6.0 day
HepG2 [39] = assay: Effect on viral dslDNA level in human HepG2 cells expressing NTCP infected with HBV at 1 uM incubated for 6 days by Southern blot analysis; format: functional, cell-based; conditions: time 6.0 day
[40] = Volume of distribution at steady state in male mouse at 5 mg/kg, iv; format: ADME, organism-based; conditions: in vivo, read-out: Vdss
[41] = Half life in male mouse at 20 mg/kg, iv; format: ADME, organism-based; conditions: in vivo
Cytochrome P450 2D6 = Cytochrome P450 2D6 (Homo sapiens, UniProt P10635); assay: Inhibition of CYP2D6 in human liver microsome; format: ADME, microsomes
Chain of Cytochrome P450 2D6 (P10635 whole entry): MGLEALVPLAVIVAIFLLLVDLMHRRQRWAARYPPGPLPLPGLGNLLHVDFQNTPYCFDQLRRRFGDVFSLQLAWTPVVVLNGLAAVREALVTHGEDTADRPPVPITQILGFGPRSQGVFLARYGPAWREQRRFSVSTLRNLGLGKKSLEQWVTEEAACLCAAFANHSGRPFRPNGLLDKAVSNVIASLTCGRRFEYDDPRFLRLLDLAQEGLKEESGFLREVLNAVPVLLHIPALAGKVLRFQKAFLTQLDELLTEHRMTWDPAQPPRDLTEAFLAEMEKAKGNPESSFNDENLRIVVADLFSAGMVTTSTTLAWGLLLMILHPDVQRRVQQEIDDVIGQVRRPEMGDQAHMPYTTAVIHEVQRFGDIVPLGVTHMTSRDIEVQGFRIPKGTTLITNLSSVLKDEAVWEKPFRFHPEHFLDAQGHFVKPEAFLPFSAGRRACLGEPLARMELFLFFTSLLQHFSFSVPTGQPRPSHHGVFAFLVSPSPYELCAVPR

[42] = Cmax in male mouse at 5 mg/kg, po; format: ADME, organism-based; conditions: in vivo
[43] = Cmax in male mouse at 20 mg/kg, po; format: ADME, organism-based; conditions: in vivo
[44] = Clearance in male mouse at 20 mg/kg, iv; format: ADME, organism-based; conditions: in vivo
Cytochrome P450 2C19 = Cytochrome P450 2C19 (Homo sapiens, UniProt P33261); assay: Inhibition of CYP2C19 in human liver microsome; format: ADME, microsomes
Chain of Cytochrome P450 2C19 (P33261 whole entry): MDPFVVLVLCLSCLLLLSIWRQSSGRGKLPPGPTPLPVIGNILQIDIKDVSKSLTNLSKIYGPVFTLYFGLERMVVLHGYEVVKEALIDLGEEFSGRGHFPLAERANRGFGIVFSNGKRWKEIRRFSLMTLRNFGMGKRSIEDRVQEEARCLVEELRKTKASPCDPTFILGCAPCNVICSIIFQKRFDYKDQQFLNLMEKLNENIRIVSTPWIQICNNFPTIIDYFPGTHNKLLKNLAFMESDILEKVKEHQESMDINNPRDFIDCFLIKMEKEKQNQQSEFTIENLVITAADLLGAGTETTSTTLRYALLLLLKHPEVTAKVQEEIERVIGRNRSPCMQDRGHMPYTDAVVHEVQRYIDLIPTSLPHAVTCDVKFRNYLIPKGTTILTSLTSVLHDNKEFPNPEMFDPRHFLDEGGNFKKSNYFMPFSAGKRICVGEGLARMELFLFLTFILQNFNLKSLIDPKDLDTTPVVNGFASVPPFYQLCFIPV

[45] = Cytotoxicity in CHO-K1 cells; format: toxicity, cell-based, Cricetulus griseus; conditions: Chinese hamster
[46] = Volume of distribution at steady state in male mouse at 20 mg/kg, iv; format: ADME, organism-based; conditions: in vivo, read-out: Vdss
[47] = AUClast in male mouse at 20 mg/kg, po; format: ADME, organism-based; conditions: in vivo
[48] = Cytotoxicity in African green monkey Vero cells; format: toxicity, cell-based, Chlorocebus sabaeus
Cytochrome P450 2C9 = Cytochrome P450 2C9 (Homo sapiens, UniProt P11712); assay: Inhibition of CYP2C9 in human liver microsome; format: ADME, microsomes
Chain of Cytochrome P450 2C9 (P11712 whole entry): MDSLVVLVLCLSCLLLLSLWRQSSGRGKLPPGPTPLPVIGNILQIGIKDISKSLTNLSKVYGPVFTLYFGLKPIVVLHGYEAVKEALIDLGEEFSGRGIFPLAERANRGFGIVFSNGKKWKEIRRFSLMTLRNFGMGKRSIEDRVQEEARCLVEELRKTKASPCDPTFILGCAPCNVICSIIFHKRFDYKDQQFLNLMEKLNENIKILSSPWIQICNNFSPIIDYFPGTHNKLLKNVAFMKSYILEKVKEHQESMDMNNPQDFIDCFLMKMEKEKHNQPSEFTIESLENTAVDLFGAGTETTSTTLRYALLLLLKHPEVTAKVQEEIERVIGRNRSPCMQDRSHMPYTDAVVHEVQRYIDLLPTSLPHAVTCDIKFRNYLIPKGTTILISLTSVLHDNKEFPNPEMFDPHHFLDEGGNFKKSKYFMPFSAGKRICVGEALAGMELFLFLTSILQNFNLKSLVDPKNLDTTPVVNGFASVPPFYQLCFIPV

Hepatitis B virus [49] = assay: Antiviral activity against HBV in human HepG2 cells expressing NTCP assessed as reduction in viral replication; format: functional, organism-based

Nc1cc(F)c(S(=O)(=O)NC2COC2)cc1C(=O)Nc1ccc(F)c(C(F)F)c1
IC50 [1]: > 100 µM | AUC(0-t) [2]: 0.56 µg·h/mL | IC50 (Cytochrome P450 3A4): > 100 µM | Activity [3]: 8.62 mL | remaining at 4 h [4]: 94% | Activity [5]: Active | half-life [6]: 533 min | selectivity ratio [7]: 3160 | remaining at 0.5 h [8]: 45.4% | Ratio (Hepatitis B virus [9]): 6% | remaining at 4 h [10]: 94.5% | CC50 [11]: 63.2 µM | fraction unbound [12]: 0.143 | Activity (Hepatitis B virus [13]): 14% | bioavailability [14]: 5.89% | IC50 [15]: > 100 µM | AUC(0-t) [16]: 0.85 µg·h/mL | Activity (Hepatitis B virus [17]): Active; Compound Modestly Decreased Hbc Level | AUC(0-inf) [18]: 5.46 µg·h/mL | IC50 [19]: > 10 µM | remaining at 0.5 h [20]: > 100% | fold change (FC) (Hepatitis B virus [21]): ~2 | selectivity ratio [22]: > 100 | Tmax [23]: 15 min | CC50 [24]: > 100 µM | bioavailability [25]: 66.2% | CC50 [26]: > 900 µM | Activity (Hepatitis B virus [27]): 6% | EC50 (Hepatitis B virus [28]): 0.05 µM | half-life [29]: 55.2 min | remaining at 0.5 h [30]: 56.8% | AUC(0-inf) [31]: 0.28 µg·h/mL | selectivity ratio [32]: > 17500 | half-life [33]: 52.2 min | Activity (Hepatitis B virus [34]): 113% | AUC(0-inf) [35]: 0.57 µg·h/mL | fold change (FC) (Hepatitis B virus [36]): 16 | AUC(0-t) [37]: 4.61 µg·h/mL | Activity (HepG2 [38]): No effect | Activity (HepG2 [39]): No effect | Vd [40]: 29.1 L/kg | half-life [41]: 576 min | IC50 (Cytochrome P450 2D6): > 100 µM | Cmax [42]: 0.54 µg/mL | Cmax [43]: 0.37 µg/mL | clearance [44]: 3.93 L/h/kg | IC50 (Cytochrome P450 2C19): > 100 µM | IC50 [45]: > 100 µM | Vd [46]: 46.5 L/kg | AUC(0-t) [47]: 0.27 µg·h/mL | IC50 [48]: > 100 µM | IC50 (Cytochrome P450 2C9): > 100 µM | EC50 (Hepatitis B virus [49]): 0.02 µM
